Measurements from patent publication US20260234159A1, “SMALL MOLECULE TREATMENT OF FATTY LIVER DISEASE AND HCC” (SCANDIEDGE THERAPEUTICS AB, priority 2023, published 2026).

Experiment: In vivo toxicological study in rats: plasma chemistry
Design: species or system rats of the Wistar strain
Method: Forty-two male and forty-two female rats of the Wistar strain were allocated to the study. Three groups of three males and three females were given doses of 30, 100 and 300 mg/kg of target compounds (Table 8). The vehicle was 1.5 w/w % HPMC, 1.5 w/w % PS80 in 10 mM PBS, pH 7 and dose volume were 5 mL/kg. The animals were acclimatised at least 14 day prior to the study and exposed to a 12 hours light, 12 hours dark light cycle. The formulations were administered via oral gavage. Administration occurred once daily in the morning for seven consecutive days. Blood for scheduled haematology and plasma chemistry were taken at necropsy. For plasma chemistry, 0.6 ml blood (lithium heparin) per animal and for haematology, 0.5 ml blood (K2EDTA) per animal. The blood and plasma were analysed using Exigo analyzer and Vetscan equipment. Blood samples were kept in room temperature […] after collection and mixing. The blood samples were analysed as whole blood within 60 min of collection. The VetScan analyser was calibrated with calibration samples of known plasma levels of each parameter before start of analysis, occasionally during the analysis period of study samples and after completed analyses (Table 10).

[1] = plasma, Sex/Group F/11, 30-300 mg/kg of SET171
[2] = plasma, Sex/Group F/12, 30-300 mg/kg of SET171
[3] = plasma, Sex/Group F/13, 30-300 mg/kg of SET171
[4] = plasma, Sex/Group M/11, 30-300 mg/kg of SET171
[5] = plasma, Sex/Group M/12, 30-300 mg/kg of SET171
[6] = plasma, Sex/Group M/13, 30-300 mg/kg of SET171
[7] = female, 30 mg/kg oral daily 7 d
[8] = female, 100 mg/kg oral daily 7 d
[9] = female, 300 mg/kg oral daily 7 d

With `N#Cc1c(NC(=O)c2cccc3ccccc23)sc2c1CCN(CC(=O)Nc1cccc(Br)c1)C2` [PKL-B171] the ALB [1] was 61 g/L, the ALP [1] was 114 U/L and the ALT [1] was 21 U/L. It also gave an AMY [1] of 527 U/L, a BUN [1] of 6.0 mmol/L and a CA [1] of 2.90 mmol/L. The CRE [1] was 45 µmol/L, the GLOB [1] was 8 g/L and the GLU [1] was 7.8 mmol/L. For the same compound, the “K+” value [1] was 4.4 mmol/L, the “NA+” value [1] was 138 mmol/L and the PHOS [1] was 2.33 mmol/L. For the same compound, the TBIL [1] was 5.3 µmol/L, the TP [1] was 70 g/L and the ALB [2] was 57 g/L. The ALP [2] was 126 U/L, the ALT [2] was 21 U/L and the AMY [2] was 570 U/L. The BUN [2] was 6.5 mmol/L, the CA [2] was 2.92 mmol/L and the CRE [2] was 38 µmol/L. The GLOB [2] was 9 g/L, the GLU [2] was 7.7 mmol/L and the “K+” value [2] was 4.5 mmol/L. The “NA+” value [2] was 137 mmol/L, the PHOS [2] was 2.42 mmol/L and the TBIL [2] was 5.0 µmol/L. It also gave a TP [2] of 66 g/L, an ALB [3] of 56 g/L and an ALP [3] of 145 U/L. The ALT [3] was 21 U/L, the AMY [3] was 550 U/L and the BUN [3] was 6.3 mmol/L. For the same compound, the CA [3] was 2.89 mmol/L, the CRE [3] was 39 µmol/L and the GLOB [3] was 11 g/L. For the same compound, the GLU [3] was 7.9 mmol/L, the “K+” value [3] was 4.5 mmol/L and the “NA+” value [3] was 139 mmol/L. It also gave a PHOS [3] of 2.64 mmol/L, a TBIL [3] of 4.0 µmol/L and a TP [3] of 67 g/L. The ALB [4] was 51 g/L, the ALP [4] was 260 U/L and the ALT [4] was 26 U/L. For the same compound, the AMY [4] was 810 U/L, the BUN [4] was 5.3 mmol/L and the CA [4] was 2.97 mmol/L. It also gave a CRE [4] of 47 µmol/L, a GLOB [4] of 12 g/L and a GLU [4] of 7.8 mmol/L. The “K+” value [4] was 4.3 mmol/L, the “NA+” value [4] was 140 mmol/L and the PHOS [4] was 2.83 mmol/L. The TBIL [4] was 4.3 µmol/L, the TP [4] was 62 g/L and the ALB [5] was 52 g/L. It also gave an ALP [5] of 248 U/L, an ALT [5] of 35 U/L and an AMY [5] of 846 U/L. It also gave a BUN [5] of 6.2 mmol/L, a CA [5] of 3.04 mmol/L and a CRE [5] of 35 µmol/L. The GLOB [5] was 12 g/L, the GLU [5] was 7.7 mmol/L and the “K+” value [5] was 4.6 mmol/L. The “NA+” value [5] was 140 mmol/L, the PHOS [5] was 3.04 mmol/L and the TBIL [5] was 4.3 µmol/L. For the same compound, the TP [5] was 64 g/L, the ALB [6] was 50 g/L and the ALP [6] was 263 U/L. It also gave an ALT [6] of 25 U/L, an AMY [6] of 808 U/L and a BUN [6] of 6.4 mmol/L. The CA [6] was 2.96 mmol/L, the CRE [6] was 29 µmol/L and the GLOB [6] was 13 g/L. The GLU [6] was 8.4 mmol/L, the “K+” value [6] was 4.4 mmol/L and the “NA+” value [6] was 141 mmol/L. The PHOS [6] was 2.94 mmol/L, the TBIL [6] was 5.0 µmol/L and the TP [6] was 63 g/L.
For `COc1ccc(C(=O)Nc2sc3c(c2C#N)CCCCC3)cc1OC` [PKL-A135, N-(3-cyano-5,6,7,8-tetrahydro-4H-cyclohepta[b]thiophen-2-yl)-3,4-dimethoxy-benzamide], the ALB [7] was 56 g/L, the ALP [7] was 117 U/L and the ALT [7] was 23 U/L. For the same compound, the AMY [7] was 564 U/L, the BUN [7] was 6.0 mmol/L and the CA [7] was 2.91 mmol/L. The CRE [7] was 31 µmol/L, the GLOB [7] was 8 g/L and the GLU [7] was 8.1 mmol/L. The “K+” value [7] was 4.6 mmol/L, the “NA+” value [7] was 141 mmol/L and the PHOS [7] was 2.30 mmol/L. For the same compound, the TBIL [7] was 5.3 µmol/L, the TP [7] was 64 g/L and the ALB [8] was 59 g/L. For the same compound, the ALP [8] was 126 U/L, the ALT [8] was 23 U/L and the AMY [8] was 589 U/L. It also gave a BUN [8] of 5.7 mmol/L, a CA [8] of 2.96 mmol/L and a CRE [8] of 44 µmol/L. For the same compound, the GLOB [8] was 11 g/L, the GLU [8] was 7.9 mmol/L and the “K+” value [8] was 4.4 mmol/L. For the same compound, the “NA+” value [8] was 140 mmol/L, the PHOS [8] was 2.34 mmol/L and the TBIL [8] was 5.0 µmol/L. It also gave a TP [8] of 71 g/L, an ALB [9] of 59 g/L and an ALP [9] of 156 U/L. The ALT [9] was 20 U/L, the AMY [9] was 590 U/L and the BUN [9] was 5.3 mmol/L. The CA [9] was 3.00 mmol/L, the CRE [9] was 41 µmol/L and the GLOB [9] was 9 g/L. For the same compound, the GLU [9] was 7.8 mmol/L, the “K+” value [9] was 4.6 mmol/L and the “NA+” value [9] was 142 mmol/L. The PHOS [9] was 2.91 mmol/L, the TBIL [9] was 5.3 µmol/L and the TP [9] was 67 g/L. The ALB (male, 30 mg/kg oral daily 7 d) was 50 g/L, the ALP (male, 30 mg/kg oral daily 7 d) was 234 U/L and the ALT (male, 30 mg/kg oral daily 7 d) was 33 U/L. The AMY (male, 30 mg/kg oral daily 7 d) was 757 U/L, the BUN (male, 30 mg/kg oral daily 7 d) was 5.6 mmol/L and the CA (male, 30 mg/kg oral daily 7 d) was 3.01 mmol/L. For the same compound, the CRE (male, 30 mg/kg oral daily 7 d) was 39 µmol/L, the GLOB (male, 30 mg/kg oral daily 7 d) was 15 g/L and the GLU (male, 30 mg/kg oral daily 7 d) was 8.5 mmol/L. The “K+” value (male, 30 mg/kg oral daily 7 d) was 4.80 mmol/L, the “NA+” value (male, 30 mg/kg oral daily 7 d) was 140 mmol/L and the PHOS (male, 30 mg/kg oral daily 7 d) was 2.20 mmol/L. It also gave a TBIL (male, 30 mg/kg oral daily 7 d) of 5.0 µmol/L, a TP (male, 30 mg/kg oral daily 7 d) of 65 g/L and an ALB (male, 100 mg/kg oral daily 7 d) of 50 g/L. For the same compound, the ALP (male, 100 mg/kg oral daily 7 d) was 259 U/L, the ALT (male, 100 mg/kg oral daily 7 d) was 25 U/L and the AMY (male, 100 mg/kg oral daily 7 d) was 770 U/L. It also gave a BUN (male, 100 mg/kg oral daily 7 d) of 5.6 mmol/L, a CA (male, 100 mg/kg oral daily 7 d) of 2.95 mmol/L and a CRE (male, 100 mg/kg oral daily 7 d) of 36 µmol/L. For the same compound, the GLOB (male, 100 mg/kg oral daily 7 d) was 12 g/L, the GLU (male, 100 mg/kg oral daily 7 d) was 8.9 mmol/L and the “K+” value (male, 100 mg/kg oral daily 7 d) was 4.83 mmol/L. The “NA+” value (male, 100 mg/kg oral daily 7 d) was 138 mmol/L, the PHOS (male, 100 mg/kg oral daily 7 d) was 2.51 mmol/L and the TBIL (male, 100 mg/kg oral daily 7 d) was 4.7 µmol/L. The TP (male, 100 mg/kg oral daily 7 d) was 61 g/L, the ALB (male, 300 mg/kg oral daily 7 d) was 50 g/L and the ALP (male, 300 mg/kg oral daily 7 d) was 275 U/L. The ALT (male, 300 mg/kg oral daily 7 d) was 28 U/L, the AMY (male, 300 mg/kg oral daily 7 d) was 835 U/L and the BUN (male, 300 mg/kg oral daily 7 d) was 5.7 mmol/L. It also gave a CA (male, 300 mg/kg oral daily 7 d) of 2.98 mmol/L, a CRE (male, 300 mg/kg oral daily 7 d) of 38 µmol/L and a GLOB (male, 300 mg/kg oral daily 7 d) of 13 g/L. The GLU (male, 300 mg/kg oral daily 7 d) was 9.0 mmol/L, the “K+” value (male, 300 mg/kg oral daily 7 d) was 5.2 mmol/L and the “NA+” value (male, 300 mg/kg oral daily 7 d) was 140 mmol/L. For the same compound, the PHOS (male, 300 mg/kg oral daily 7 d) was 2.64 mmol/L, the TBIL (male, 300 mg/kg oral daily 7 d) was 5.0 µmol/L and the TP (male, 300 mg/kg oral daily 7 d) was 63 g/L.
